Test results from patent US20250275940A1, “PTEROSTILBENE AND SILIBININ FOR PREVENTING, AMELIORATING OR REDUCING RADIATION-INDUCED DISEASES” (UNIVERSITAT DE VALÈNCIA, priority 2021, published 2025).

Experiments:
[1] = system: cellular DNA damage; test: Comet assay of DNA damage in cells isolated from γ-irradiated mice; type: in vivo; conditions: FIG. 14c
Description: (§1) FIG. 14. […] Cells were isolated 72 h after irradiation. […] Mice were treated and cells isolated as above (a).
This assay is a single cell gel electrophoresis assay for simple evaluation of cellular DNA damage. We used the assay kit from Abcam (ab238544) (Cambridge, UK). The manufacturer's instructions were followed step by step.

[2] = system: Swiss albino mice subjected to whole-body γ irradiation; test: Survival of mice subjected to whole-body γ irradiation (LD50/30); type: in vivo
Source text: Swiss albino mice (male, 9-10 weeks old, 30-32 g) were obtained from Charles River Laboratories (Wilmington, MA). This strain is among the most common used in radiation studies (Williams 2010). Mice were fed with a nutritionally complete diet (standard diet, SD) before irradiation. This was A03 from Panlab (Barcelona, Spain), which has 3,200 kcal/kg and the following nutritional composition: crude protein, 23.5%; crude fat, 4.3%; crude fiber, 3.7%; and carbohydrates, 51.1%; vitamins and minerals were provided as in the NIH-7 open formula for rat and mouse. This diet meets the dietary allowances recommended for adult mice by the American Institute of Nutrition. The animals were fed ad libitum and kept in individual metabolic cages, in which body weight and food ingestion were monitored daily. The animal room was maintained at 22° C. on a 12 h light/12 h dark cycle. Ad libitum intake of drinking water was also allowed. Care of irradiated mice followed the recommendation of the Robert Wood Johnson Medical School (Piscataway, NJ) for mouse total body irradiation (policy 15), which includes: a) use of antibiotics in the drinking water (134 mg ampicillin/kg/day, 40 mg baytril/kg/day, and 220/42 mg sulfamethoxazole/trimethoprim/kg/day), b) making drinking water readily available, c) Napa nectar Systems Engineering Lab Group Inc., Napa, CA) provided on the bottom of the cage during the first 14 days and replaced daily, d) provision of softened food served in a small Petri dish on the cage floor, e) completely sterile environment (cage, food, and water) to avoid potential immunosuppression-associated infections. A free-standing wheel inside the cage was also included to facilitate the physical exercise of the animals. All experiments were started at 10.00 h to minimize possible circadian variations. Procedures involving animals were in compliance with international laws and policies (EEC Directive 86/609, OJ L 358. 1, Dec. 12, 1987; and NIH Guide for the Care and Use of Laboratory Animals, NIH Publ. No. 85-23, 1985). Mice were subjected to g-radiation (^137Cs) (total body irradiation, TBI) in a BIOBEAM 8000 (Gamma-Service Medical GmbH, Leipzig, Germany). Single fraction radiotherapy, at total doses ranging from approx. 5.0 to 10.0 Gy, was administered at a rate of approx. […]. The irradiation distance from the source was limited to 12 cm. Radiation dosimetry was controlled using alanine dosimeters from Bruker (Billerica, MA) with dosimetry variation of +/−0.09 Gy. […] NR (nicotinamide riboside, 3-aminocarbonyl-1-b-D-ribofuranosyl-pyridinium, Elysium Health, Inc., New York, NY) was dissolved in vaccination-grade water, and the pH of the solution neutralized (pH 7.0) before oral administration (185 mg/kg×day, Obrador 2020). FSL-1 (InvivoGen, San Diego, CA) was resuspended in sterile vaccination-grade water, and administered IP (0.25 mg/kg×day, the volume administered was of […] depending on the weight of the mouse, as recommended by Kurkjian 2017). Pharmaceutical grade amifostine (Ethyol) was obtained from Cumberland Pharmaceuticals (Nashville, TN) as 500 mg sterile lyophilized powder vial, and reconstituted with physiological saline prior to use.
First, the effects of γ radiation and mice survival were studied. […] Mice received whole-body γ radiation (one single dose; ^137Cs, 0.5-0.6 Gy/min; Biobeam 8000, GSM GmbH). One Gy=absorption of 1 J of energy/kg of matter.
Next, the thirty-days survival of mice treated with γ rays (LD50/30) and pterostilbene (PT) was analysed (FIG. 1B).

[3] = system: cellular NAD+ content; test: NAD+ content of cells isolated from mice; type: in vivo; conditions: FIG. 14a
Description: as §1
Isolated cells were homogenized in 0.1M phosphate buffer (pH 7.2) at 4° C. γ-glu tamylcysteine ligase (GCL), glutathione peroxidase (GPX), catalase (CAT), and superoxide dismutase 1 and 2 (SOD1 and SOD2) activities were measured as previously described in detail (Benlloch 2016). Protein concentration was determined with the Pierce BCA protein assay (Thermo Fisher Scientific). Glutathione ([…]-L-glutamyl-L-cystenyl-glycine, GSH) was determined by LC/MS as previously reported (Obrador 2014). Cell processing was performed according to published methodology, where rapid N-ethylmaleimide derivatization was used to prevent GSH auto-oxidation (Asensi 1994). NAD^+ and NADH in isolated cells were quantitated using assay kits from MyBiosource (San Diego, CA).
Presumably, the effect of the polyphenols is an antioxidant-related mechanism, whereas the NR-induced increase in NAD+ directly promotes the DNA repair activity.

[4] = PT, SIL and NAD+ levels in circulating blood; conditions: treated and irradiated mice, FIG. 10B
Description: Briefly, samples were analyzed through HPLC (Ultimate 3000, Thermo Fisher Scientific) and MS/MS (Waters TQ detector triple quadrupole) systems on a Hypurity™ C18 column (50×4.6 mm) using an injection volume of 5 μL. The mobile phases consisted of water (A) and acetonitrile (B). […] MS/MS data acquisition was performed under negative electrospray ionization mode. […] The fragmentary voltage was 150 V, and the collision energy 15 eV. Tissue sample preparation was as described for determination of PTER levels (above).
Whole-blood samples (0.5 ml) were collected in sodium citrate tubes at 4° C. Then a whole-blood aliquot of 0.1 ml was transferred to a cryovial containing 0.9 ml of 0.5 M ice-cold perchloric acid to lyse all blood cells. Samples were centrifuged at 10,000 g×10 min (4° C.). Supernatants were stored at −80° C. until analyzed.

[5] = molecular target: nicotinamide phosphoribosyltransferase (NAMPT) (Mus musculus, UniProt Q99KQ4); conditions: mice treated with FK866 for 6 days, FIG. 14b
Description: FK866 was administered in vivo (15 mg/kg, twice daily by intraperitoneal injection, during 6 days and starting 3 days prior to irradiation, see FIG. 11a), and was also present in the cell cultures (100 nM). Cells were isolated 72 h after irradiation. […] Mice were treated with the inhibitor for 6 days as above (a).
Formation of 14C-nicotinamide mononucleotide (NMN) from 14C-nicotinamide (NAM, (GE Healthcare Life Sciences, Björkgatan, Uppsala, Sweden) can be measured by precipitation of 14C-NMN in acetone on filter paper and scintillation counting. Cell dispersion was carried out by trypsinization (in Mg^2+- and Ca2^+-free PBS supplemented with 0.2% trypsin, 0.5 mM EDTA, and 5 mM glucose for 3 min at 37° C.). Cell pellets were obtained by centrifugation (800 g×5 min at 4° C.), and then 100 μl of phosphate buffer [0.01 M Na2HPO4/NaH2PO4 buffer, pH 7.4, containing protease inhibitor (Sigma-Aldrich)] was added to each cell sample. Samples were further processed, and NAMPT activity was determined on 30 μg of protein as described previously (Elliott G C, et al. 1980, and Schuster S, et al. 2014). Radioactivity (disintegrations/min) was measured using a Tri-Carb® Liquid Scintillation Counter from Perkin-Elmer. Background disintegrations/min from scintillation fluid was subtracted from each measurement.

[6] = system: hematopoietic colony forming cells CFU-GM and CFU-GEMM; test: Colony forming cells in the bone marrow; type: in vivo; conditions: femurs of γ-irradiated mice, 7 days after irradiation, FIG. 14d
Description: as §1
Mice were sacrificed under aseptic conditions and femurs were isolated on day 7 post irradiation. Bone marrow cells were flushed from the isolated femurs (see above) with phosphate-buffered saline (4° C.) supplemented with 5% fetal bovine serum. Single-cell suspension was passed through 100 μm nylon mesh strainer to remove debris and clumps. Cells were washed twice with phosphate-buffered saline (4° C.) and counted using a hemocytometer. Cells were plated ex vivo at a concentration of 5×10^4 cells per 35 mm cell culture dish in Methocult GF M3434 (Stemcell Technologies, Vancouver, Canada) growth medium according to the manufacturer's protocol and incubated for 14 days at 37° C., 5% CO2, 95% humidity. Colonies were visualized on day 14 of culture using light microscopy (AxioCam MRc5, Zeiss, Oberkochen, Germany) under a polarised light and scanned in a 60 mm gridded scoring Petri dish (Stemcell Technologies). Hematopoietic colony forming cells CFU-GM and CFU-GEMM were quantified.

[7] = 60 days post γ irradiation (LD50/30), NR oral 185 mg/kg×day for 30 days after irradiation, FSL-1 IP 0.25 mg/kg once 24 h after, FIG. 9
[8] = 60 days after γ radiation (LD50/30), compounds administered orally, FIG. 2C
[9] = 6 days after γ radiation (LD50/30), compounds administered orally, FIG. 2A

Chain of nicotinamide phosphoribosyltransferase (NAMPT) (Q99KQ4 whole entry): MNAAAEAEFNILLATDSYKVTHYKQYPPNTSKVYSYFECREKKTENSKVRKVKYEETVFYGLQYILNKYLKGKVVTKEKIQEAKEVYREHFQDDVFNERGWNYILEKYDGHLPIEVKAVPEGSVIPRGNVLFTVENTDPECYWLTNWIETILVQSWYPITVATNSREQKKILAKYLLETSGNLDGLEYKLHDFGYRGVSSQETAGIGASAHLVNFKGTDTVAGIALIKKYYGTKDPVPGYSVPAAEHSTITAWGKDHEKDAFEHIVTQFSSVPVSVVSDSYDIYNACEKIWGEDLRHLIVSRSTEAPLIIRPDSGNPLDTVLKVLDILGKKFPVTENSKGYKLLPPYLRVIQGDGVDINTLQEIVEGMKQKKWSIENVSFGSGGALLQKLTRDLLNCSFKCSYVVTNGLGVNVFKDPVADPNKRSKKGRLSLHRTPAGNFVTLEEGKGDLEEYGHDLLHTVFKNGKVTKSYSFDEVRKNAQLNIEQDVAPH

Molecule: NC(=O)c1ccc[n+]([C@@H]2O[C@H](CO)[C@@H](O)[C@H]2O)c1 [NR, 3-aminocarbonyl-1-b-D-ribofuranosyl-pyridinium]
- DNA recovery (DNA damage COMET assay) [1]: favored DNA recovery
- survival [2, 7]: 0%
- decrease of NAD+ induced by γ radiation ([3]; cells isolated 72 h after irradiation): prevents
- NAD+ content in different cell types ([3]; cells isolated from treated mice): increases

Molecule: O=C(CCc1ccc(O)cc1)c1c(O)cc(O)cc1O[C@@H]1O[C@H](CO)[C@@H](O)[C@H](O)[C@H]1O [Phloridzin, phloridzin]
- survival [2, 8]: 0%

Molecule: O=C(O)c1cc(O)c(O)c(O)c1 [Gallic acid, gallic acid]
- survival [2, 9]: around 100%
- survival [2, 8]: around 5%

Molecule: O=c1cc(-c2ccc(O)c(O)c2)oc2cc(O)cc(O)c12 [Luteolin, luteolin]
- survival [2, 8]: 0%
- percentage of survival reduced in ([2]; after 30 days, γ radiation (LD50/30), oral, FIG. 2B): about 40%

Molecule: Oc1ccc(C=Cc2cc(O)cc(O)c2)cc1 [Resv, resveratrol]
- radioprotective effects compared with PT ([2]; orally once per day, 5 days before and 2 days after γ irradiation (7.2 Gy), FIG. 1C): lower than those of PT

Molecule: O=C(O[C@@H]1Cc2c(O)cc(O)cc2O[C@@H]1c1cc(O)c(O)c(O)c1)c1cc(O)c(O)c(O)c1 [EGCG, epigallocatechin gallate]
- survival [2, 9]: around 100%
- survival [2, 8]: 0%

Molecule: COc1cc([C@@H]2Oc3cc(C4Oc5cc(O)cc(O)c5C(=O)[C@H]4O)ccc3O[C@H]2CO)ccc1O (stereo in doubt) [SIL, 3,5,7-trihydroxy-2-[3-(4-hydroxy-3-methoxyphenyl)-2-(hydroxymethyl)-2,3-dihydro-1,4-benzodioxin-6-yl]-2,3-dihydrochromen-4-one]
- survival [2, 8]: around 10%
- SIL levels in circulating blood, 30 min vs 120 min [4]: higher 30 min after

Molecule: O=C1C[C@@H](c2ccc(O)cc2)Oc2cc(O)cc(O)c21 [Naringerin, naringenin]
- survival [2, 8]: 0%

Molecule: O=C(/C=C/c1cccnc1)NCCCCC1CCN(C(=O)c2ccccc2)CC1 [FK866, reference compound]
- NAMPT activity [5]: drastic decrease
- NAD+ levels in mice treated with PT+SIL+NR or PT+SIL+NR+γ rays ([3]; FK866 15 mg/kg twice daily IP 6 days and 100 nM in cell cultures): decreased

Molecule: Oc1cc(O)c2cc(O)c(-c3cc(O)c(O)c(O)c3)[o+]c2c1 [Delphinidin]
- survival [2, 8]: around 12%

Molecule: FSL-1
- survival [2, 7]: 5%
- hematopoietic colony forming cells CFU-GEMM [6]: increases
- hematopoietic colony forming cells CFU-GM [6]: increases

Molecule: O=c1c(-c2ccc(O)cc2)coc2cc(O)cc(O)c12 [Genistein, genistein]
- survival [2, 8]: around 7%

Molecule: O=c1c(O)c(-c2ccc(O)c(O)c2)oc2cc(O)cc(O)c12 [Quercetin, quercetin]
- survival [2, 8]: 0%
